Results: publication PMC5764437, “Discovery of novel, orally bioavailable, antileishmanial compounds using phenotypic screening” (PLoS Neglected Tropical Diseases, 2017)
Where a name gives a salt, the structure may show the parent alone. Read-outs that look alike come from different tables or passages of the source. Starred links: 1 amine or outer side, 2 acyl side, 3 side chain; linkers in the order of their positions; H or OH if unused. Positions of bridges follow the written chain, without caps; N, C: chain ends. Non-standard residues stand in square brackets, D forms with d. Residues, ends and D or L forms follow the SMILES beside them. Chains are numbered I, II in the order given. Actinocin(9to1) = Cc1c2oc3c(C)ccc(C(=O)[*:1])c3nc-2c(C(=O)[*:2])c(N)c1=O; NMeV = CN[C@H](C(=O)O)C(C)C; Sar = CNCC(=O)O

What was measured:
[1] = system: L. mexicana intracellular amastigotes; experiment: Growth inhibition of intracellular amastigotes in J774A.1 macrophages (Renilla luciferase luminescence); format: cell-based; conditions: Leishmania mexicana
Procedure: (§1) L. mexicana (MNYZ/BZ/62/M379) or L. donovani (LdBob strain) parasites expressing the Renilla luciferase gene from a rRNA gene locus were used to infect J774A.1 macrophages. Growth of intracellular amastigotes was measured using a luminescence assay, as detailed previously. The growth inhibitor activities of compounds were tested against bloodstream form Lister 427 T. brucei in 96-well plates containing 1 X 10^5 parasites per well in 0.2 ml HMI-11 medium (Gibco/Thermo Fisher). Compounds (2 μl volumes in DMSO) were added to the parasites using serial 3-fold dilutions to cover a range of concentrations from about 10 μM to 1 nM. After 48 h incubation at 37°C under a humidified 5% CO2 atmosphere, 10 μl of 10% Triton X-100 and 100 X stock SYBR Green I (Sigma-Aldrich) in PBS was added and florescence measured (excitation 497 nm; emission 520 nm) after 1 h incubation in the dark using a Spectra Max Gemini XPS fluorimeter (Molecular Devices). Data were log transformed and EC50 values were determined using GraphPad Prism 6 (GraphPad Software). In the absence of growth inhibiting compounds, the parasites grew from an initial density of 5 X 10^5 cells/mL to ~3 X 10^6 cells/mL.
[…]. These were chosen as candidates for further study. From these 230 compounds, we were able to repurchase 113 from commercial vendors. These compounds were characterized for purity by ultra-performance liquid chromatography using ultraviolet spectroscopy and evaporative light scattering detection and identity by mass spectrometry. All validated compounds were profiled for activity against intracellular amastigotes, the disease-causing stage of the life cycle. Intracellular amastigote activity was determined using a strain of L. mexicana in which the Renilla luciferase gene was integrated into the rRNA locus, allowing robust expression for measuring amastigote growth within cultured macrophages. All 113 compounds were applied at 1 μM concentration for 96 h to J774A.1 macrophages infected with L. mexicana luciferase-expressing parasites. […].
Next, we generated dose-response curves for these 55 compounds against intracellular amastigotes and independently against J774A.1 macrophages to establish the relative potency of each compound against the pathogen and its host cell. […]. The nine remaining compounds, each representing a unique chemical scaffold (compounds 1–9, Fig 3), were designated top hits (Fig 1).

[2] = system: L. donovani intracellular amastigotes; experiment: as above; format: cell-based; conditions: Leishmania donovani
Procedure: as §1

J774A.1 macrophages = experiment: Cytotoxicity to J774A.1 macrophages (dose-response); format: cell-based; conditions: for EC50: Mus musculus
Procedure: Cytotoxicity of compounds to J774.A1 macrophages was determined by dose-response curves as described previously. In the absence of growth inhibitors or DMSO, the macrophages increased in number ~6-fold over 96 h in Minimum Essential Medium, employed for both macrophage infections and the toxicity assays.

[3] = system: bloodstream form Lister 427 T. brucei; experiment: Growth inhibition of T. brucei bloodstream forms (SYBR Green I); format: cell-based; conditions: Trypanosoma brucei, read-out: T. brucei EC50
Procedure: as §1

[4] = Mouse plasma protein binding assay (Rapid Equilibrium Dialysis); format: in vitro ADME; conditions: mouse, mouse plasma, pH 7.4; Conc. 4 μM
Procedure: A Rapid Equilibrium Dialysis (RED) Plate (Thermo Scientific, catalog #, PI-90007) was used to determine the percentage of compound binding to mouse plasma proteins (Thermo Scientific, catalog #, 50642085). The positive control for this experiment was propranolol HCl (295.807 g/mol) and the internal standard was warfarin in methanol (2 μM). 10 mM stocks of compound in DMSO were diluted with DMSO and acetonitrile to three different intermediate concentrations: high (2 mM), medium (0.4 mM) and low (0.08 mM) concentration in DMSO:acetonitrile (1:4, v:v). 10 mM stock of propranolol in DMSO were diluted to 0.4 mM concentration in DMSO:acetonitrile (1:4 v:v).
In 10 Eppendorf tubes, the control (10 μL) or each of three compound dilutions (10 μL) were each added to separate aliquots of 990 μL mouse plasma. Potassium phosphate buffer (500 μL, 0.1 M, pH 7.4, 37 °C) was placed in every white well of the RED plate and each plasma/compound mixture was added to each of 3 RED wells (300 μL). The RED plate holds triplicate samples of one control (final concentration […]) and one compound (final concentrations: 20 μM, 4 μM, […]). The RED Plate was sealed and incubated at 37 °C shaking at 250 rpm for 4 hours. After incubation, aliquots (50 μL) from each well in the RED plate were transferred to an assay plate (pION Inc., MA, #110323). In order to create a uniform matrix in every well of the assay plate, plasma (50 μL) was added to each of the wells that already contained buffer and potassium phosphate buffer (50 μL) was added to each of the wells that already contained plasma/compound. Pre-cooled internal standard (300 μL) was added to the assay plate to quench the reaction. The quenched plate was then centrifuged (5810R, Eppendorf, Westbury, NY) at 3000 rpm for 20 minutes.
The percentage of free compound [1] and bound compound [2] was calculated usng the AUC ratio of compound to warfarin from the SIR spectra. For reporting data, % Free = Concentration buffer/Concentration plasma *100 %, and % Bound = 100% - % Free.

[5] = system: L. mexicana promastigotes; experiment: High-throughput assay for growth inhibition of promastigotes (SYBR Green I); format: cell-based
Procedure: Into each well of 384-well microplates (black polystyrene, clear bottom, tissue culture treated, Corning), 15 μl of medium (DME-L [41] plus 100 μM xanthine and 10% heat inactivated fetal calf serum) was dispensed with a liquid dispenser (Matrix Wellmate, Thermo Scientific). Stock compounds, dissolved in DMSO at a fixed concentration of 10 mM, were pin-transferred (V&P Scientific) into the microplate to the desired final concentration using an automated robot arm. To each well of the plates, 15 μl of L. mexicana promastigotes (strain MNYZ/BZ/62/M379, 2 x 10^6/mL) was added with the Wellmate dispenser. Microplates were incubated (Liconic) at 28°C and 5% CO2 for 72 h. After incubation, 10 μl of lysis/dye solution (5X SYBR Green I, 5% Triton X-100 in PBS) was added to each well. Plates were shaken at 1000 rpm, incubated at room temperature for 20 min, and fluorescence signal measured (excitation 485 nm, emission 535 nm) with the Envision plate reader (PerkinElmer).
The initial promastigote screen was performed with the St. Jude Chemical Biology & Therapeutics (CBT) library consisting of 596,414 compounds. Library compounds were filtered by several computational methods to remove those likely to have undesirable physical or biological properties and biased towards oral bioavailability. In this way we focused the collection on compounds most likely to be effective in cellular models of activity, without structural features that would pose a challenge to drug development. In the primary screen, compounds were applied to promastigotes of L. mexicana at a fixed concentration of 10 μM, and parasite proliferation was monitored, following a 72 h incubation, by quantifying total DNA content after lysis using the nucleic acid binding dye SYBR Green I [45].
To confirm the activity of the primary hits and improve confidence that they would be reasonable starting points for drug development, a variety of secondary screens and analyses were employed (Fig 1A). […]. In parallel, mammalian cell growth inhibition was determined using in vitro proliferation assays with normal human fibroblasts (BJ cells). […]. To further triage the hits, we carried out a chemical structure analysis for the 2,703 primary hit compounds utilizing topology mapping and clustering methodology. We identified a wide range of chemotypes, including several scaffolds with potential structure-activity relationships (SARs), based on their dose response activity (Fig 2). Validated hits were then culled by eliminating scaffolds with less favorable drug development properties such as charged planar structures, reactive electrophilic warheads, known pan-assay interference motifs (PAINS), and compounds displaying gross rule of five noncompliance. Finally, we prioritized scaffolds with the possibility of facile chemical modification to generate a substantial number of structural analogs for future SAR and structure-property relationship (SPR) studies.

[6] = J774.A1, intracellular amastigotes in J774A.1 macrophages, mean ± standard deviation, n = 2, read-out: L. mexicana EC50
[7] = J774.A1, intracellular amastigotes in J774A.1 macrophages, mean ± standard deviation, n = 2, read-out: L. donovani EC50
[8] = J774.A1, host macrophage, tested up to 10 μM, mean ± standard deviation, n = 2, read-out: J774A.1 EC50
[9] = bloodstream form, mean ± standard deviation, n = 2
[10] = Leishmania mexicana, bracketed references point to earlier reports of antileishmanial activity, read-out: EC50 of known inhibitors identified by the HTS
[11] = bracketed references point to earlier reports of antileishmanial activity, read-out: EC50 of known inhibitors identified by the HTS

CC[C@H]1CN2CCc3cc(OC)c(OC)cc3[C@@H]2C[C@@H]1C[C@H]1NCCc2cc(O)c(OC)cc21 [Compound 1, cephaeline]
EC50 ([1]; J774.A1, read-out: L. mexicana EC50): 0.6 ± 0.2 nM | EC50 ([2]; J774.A1, read-out: L. donovani EC50): 2 ± 0.5 nM | EC50 (J774A.1 macrophages; J774.A1, read-out: J774A.1 EC50): 920 ± 900 nM | EC50 [3]: 800 ± 200 nM

Fc1ccccc1Nc1nc(NCc2ccccc2)c2ccccc2n1 [Compound 2]
EC50 [1, 6]: 44 ± 23 nM | EC50 [2, 7]: 130 ± 20 nM | EC50 (J774A.1 macrophages; [8]): > 10000 nM | Reduction in viability / inhibition of host macrophage J774A.1 in dose-response studies (J774A.1 macrophages; up to 10 μM): no reduction in viability | EC50 [3, 9]: 2000 nM

CCN(CC)c1ccc(C2N(C)c3ccccc3N2C)cc1 [Compound 6]
EC50 [1, 6]: 5.5 ± 4.9 nM | EC50 [2, 7]: 6 ± 7 nM | EC50 (J774A.1 macrophages; [8]): 3500 ± 700 nM | EC50 [3, 9]: 2000 ± 400 nM

CCCCCCCCn1c2c(c(=N)c3ccccc31)CCC2 [Compound 7]
EC50 [1, 6]: 7 ± 6 nM | EC50 [2, 7]: 11 ± 8 nM | EC50 (J774A.1 macrophages; [8]): 700 ± 300 nM | EC50 [3, 9]: 460 ± 400 nM

CC(C)NCC(O)COc1cccc2ccccc12 (centres unmarked) [Propranolol HCl, reference compound]
fraction unbound at 4 h, 4 μM [4]: 0.284

Cc1c2oc3c(C)ccc(C(=O)N[C@@H]4C(=O)N[C@H](C(C)C)C(=O)N5CCC[C@H]5C(=O)N(C)CC(=O)N(C)[C@@H](C(C)C)C(=O)O[C@@H]4C)c3nc-2c(C(=O)N[C@@H]2C(=O)N[C@H](C(C)C)C(=O)N3CCC[C@H]3C(=O)N(C)CC(=O)N(C)[C@@H](C(C)C)C(=O)O[C@@H]2C)c(N)c1=O [actinomycin D] (I: T[dV]P[Sar][NMeV] / II: T[dV]P[Sar][NMeV]; ester I:1-I:C, II:1-II:C; linker I:N-II:N via Actinocin(9to1))
EC50 [5, 10]: 360 nM

COc1ccc(C[C@H]2NC[C@H](O)[C@H]2OC(C)=O)cc1 [anisomycin]
EC50 [5, 11]: 580 nM

CN(C)c1ccc(C(=C2C=CC(=[N+](C)C)C=C2)c2ccc(N(C)C)cc2)cc1 [crystal violet]
EC50 [5, 10]: 290 nM

CCN(CC)C(=S)SSC(=S)N(CC)CC [disulfiram]
EC50 [5, 10]: 500 nM

N=C(N)c1ccc(OCCCCCOc2ccc(C(=N)N)cc2)cc1 [pentamidine]
Inhibition of proliferation (HTS positive control) ([5]; 72 h, primary screen conditions): 100% | EC50 ([5]; Leishmania mexicana, 72 h, median over HTS plates, interquartile range 1.7–3.1, read-out: EC50 of the control per screening plate (median)): 2300 nM

CN(C)C(=S)SSC(=S)N(C)C [thiram]
EC50 [5, 10]: 1770 nM

avicin
EC50 [5, 11]: 1500 nM
